The record followed here is US20040087633A1, “Methylidene oxazolidinone compound and preparation method thereof” (Korea Institute of Science and Technology, priority 2002, published 2004).

Common to all, as to assay: Anti-microbial activity test in vitro (agar dilution MIC)
For orientation: In agar dilution the substance is mixed into plates at graded concentrations.

One experiment deals with MRSA C6068. The experiment is classed as cell-based, Staphylococcus aureus. The note with it: MRSA C6068; Agar Dilution method, Mueller Hinton Agar, 18 hours at 37° C. The procedure, abridged:
(§1)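 Plates of Mueller Hinton agar containing compound diluted twofold in steps were inoculated and incubated at 37 °C for 18 hours. The lowest concentration preventing growth, judged visually, gave the MIC in μg/ml.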

The test system of the next experiment is MSSA C2214. It is filed as cell-based, Staphylococcus aureus. The note with it: MSSA C2214; Agar Dilution method, Mueller Hinton Agar, 18 hours at 37° C. The procedure, abridged:
as §1

For the next experiment, the system named is MSSA C7142. The experiment is classed as cell-based, Staphylococcus aureus. The note with it: MSSA C7142; Agar Dilution method, Mueller Hinton Agar, 18 hours at 37° C. The procedure, abridged: as §1
The subject of the next experiment is MRSA C5100. It is filed as cell-based, Staphylococcus aureus. The note with it: MRSA C5100; Agar Dilution method, Mueller Hinton Agar, 18 hours at 37° C. The procedure, abridged: as §1
The subject of a further experiment is MRSA C2207. It is filed as cell-based, Staphylococcus aureus. The note with it: MRSA C2207; Agar Dilution method, Mueller Hinton Agar, 18 hours at 37° C. The procedure, abridged:
as §1

A further experiment has as its system CRSA C6043. The experiment is classed as cell-based, Staphylococcus aureus. The following applies: CRSA C6043; Agar Dilution method, Mueller Hinton Agar, 18 hours at 37° C. The procedure, abridged: as §1
The test system of another experiment is CRSA C1062. The experiment is classed as cell-based, Staphylococcus aureus. The following applies: CRSA C1062; Agar Dilution method, Mueller Hinton Agar, 18 hours at 37° C. The procedure, abridged:
as §1

The test system of another experiment is VRE C6488. It is filed as cell-based, Enterococcus faecium. The following applies: VRE C6488; Agar Dilution method, Mueller Hinton Agar, 18 hours at 37° C. The procedure, abridged: as §1
In the next experiment the test system is VRE C6487. It is filed as cell-based, Enterococcus faecium. The following applies: VRE C6487; Agar Dilution method, Mueller Hinton Agar, 18 hours at 37° C. The procedure, abridged:
as §1

In another experiment the test system is S. pyogenes C6003. It is filed as cell-based. The following applies: S. pyogenes C6003; Agar Dilution method, Mueller Hinton Agar, 18 hours at 37° C. The procedure, abridged: as §1
A further experiment concerns S. aureus ATCC 29213. It is filed as cell-based. The following applies: Agar Dilution method, Mueller Hinton Agar, 18 hours at 37° C. The procedure, abridged: as §1
Another experiment has as its system S. epidermidis C2235. The experiment is classed as cell-based. The note with it: S. epidermidis C2235; Agar Dilution method, Mueller Hinton Agar, 18 hours at 37° C. The procedure, abridged: as §1
The subject of a further experiment is E. faecalis C6291. The experiment is classed as cell-based. The following applies: E. faecalis C6291; Agar Dilution method, Mueller Hinton Agar, 18 hours at 37° C. The procedure, abridged:
as §1

The next experiment concerns E. faecium C2252. It is filed as cell-based. The note with it: E. faecium C2252; Agar Dilution method, Mueller Hinton Agar, 18 hours at 37° C. The procedure, abridged:
as §1

The subject of a further experiment is S. pyogenes ATCC8668. The experiment is classed as cell-based. The note with it: S. pyogenes ATCC8668; Agar Dilution method, Mueller Hinton Agar, 18 hours at 37° C. The procedure, abridged:
as §1

The subject of another experiment is S. epidermidis ATCC12228. The experiment is classed as cell-based. The following applies: S. epidermidis ATCC12228; Agar Dilution method, Mueller Hinton Agar, 18 hours at 37° C. The procedure, abridged: as §1
For the next experiment, the system named is S. pyogenes C6012. The experiment is classed as cell-based. The note with it: S. pyogenes C6012; Agar Dilution method, Mueller Hinton Agar, 18 hours at 37° C. The procedure, abridged:
as §1

For the next experiment, the system named is E. faecalis ATCC29212. The experiment is classed as cell-based. The following applies: E. faecalis ATCC29212; Agar Dilution method, Mueller Hinton Agar, 18 hours at 37° C. The procedure, abridged:
as §1

A further experiment has as its system S. epidermidis C2230. The experiment is classed as cell-based. The following applies: S. epidermidis C2230; Agar Dilution method, Mueller Hinton Agar, 18 hours at 37° C. The procedure, abridged: as §1
A further experiment relates to E. faecium C6301. The experiment is classed as cell-based. The note with it: E. faecium C6301; Agar Dilution method, Mueller Hinton Agar, 18 hours at 37° C. The procedure, abridged:
as §1

The next experiment has as its system E. faecalis C6288. The experiment is classed as cell-based. The following applies: E. faecalis C6288; Agar Dilution method, Mueller Hinton Agar, 18 hours at 37° C. The procedure, abridged: as §1

Values after ≈ are worked out from the molar mass of the structure shown.

On to `CC(=O)NC[C@H]1CN(c2ccc(N3CCC(=CC(C)=NO)CC3)c(F)c2)C(=O)O1` [Compound 20, N-[[(5S)-3-[3-fluoro-4-(4-(2-hydroxyiminopropylidene)-piperidinyl)phenyl]-2-oxo-5-oxazolidinyl]methyl]acetamide], for which the “Minimum inhibition concentration (MIC)” value is 4 µg/mL (≈ 9.89 µM) in the experiment with MRSA C6068; 8 µg/mL (≈ 19.8 µM) in the experiment with MSSA C2214; 16 µg/mL (≈ 39.6 µM) with MSSA C7142; 8 µg/mL (≈ 19.8 µM) in the experiment on MRSA C5100; 8 µg/mL (≈ 19.8 µM) with MRSA C2207; 8 µg/mL (≈ 19.8 µM) with CRSA C6043. Moreover, the “Minimum inhibition concentration (MIC)” value in the experiment on CRSA C1062 stood at 8 µg/mL (≈ 19.8 µM); in the experiment with VRE C6488, 4 µg/mL (≈ 9.89 µM); with VRE C6487, 4 µg/mL (≈ 9.89 µM); in the experiment with S. pyogenes C6003, 4 µg/mL (≈ 9.89 µM); with S. aureus ATCC 29213 it was 8 µg/mL (≈ 19.8 µM); with S. epidermidis C2235, 4 µg/mL (≈ 9.89 µM). The “Minimum inhibition concentration (MIC)” value in the experiment with E. faecalis C6291 was found to be 4 µg/mL (≈ 9.89 µM); in the experiment on E. faecium C2252, 4 µg/mL (≈ 9.89 µM); with S. pyogenes ATCC8668, 1 µg/mL (≈ 2.47 µM); with S. epidermidis ATCC12228, 1 µg/mL (≈ 2.47 µM); in the experiment on S. pyogenes C6012 it was 1 µg/mL (≈ 2.47 µM); in the experiment on E. faecalis ATCC29212, 8 µg/mL (≈ 19.8 µM). Besides, the “Minimum inhibition concentration (MIC)” value in the experiment with S. epidermidis C2230, in the experiment on E. faecium C6301 and in the experiment with E. faecalis C6288 was 4 µg/mL (≈ 9.89 µM) each time.

Consider `CON=C(C)C=C1CCN(c2ccc(N3C[C@H](CNC(C)=O)OC3=O)cc2F)CC1` [Compound 21, N-[[(5S)-3-[3-fluoro-4-(4-(2-methoxyiminopropylidene)-piperidinyl)phenyl]-2-oxo-5-oxazolidinyl]methyl]acetamide], for which the “Minimum inhibition concentration (MIC)” value in the experiment with MRSA C6068 came out at 8 µg/mL (≈ 19.1 µM); in the experiment with MSSA C2214, 16 µg/mL (≈ 38.2 µM); in the experiment with MSSA C7142, 16 µg/mL (≈ 38.2 µM); with MRSA C5100, 8 µg/mL (≈ 19.1 µM); in the experiment with MRSA C2207, 16 µg/mL (≈ 38.2 µM); in the experiment on CRSA C6043, 16 µg/mL (≈ 38.2 µM). Moreover, the “Minimum inhibition concentration (MIC)” value was 32 µg/mL (≈ 76.5 µM) with CRSA C1062; 4 µg/mL (≈ 9.56 µM) with VRE C6488; 4 µg/mL (≈ 9.56 µM) with VRE C6487; 8 µg/mL (≈ 19.1 µM) in the experiment on S. pyogenes C6003; 16 µg/mL (≈ 38.2 µM) with S. aureus ATCC 29213; 8 µg/mL (≈ 19.1 µM) with S. epidermidis C2235. Moreover, the “Minimum inhibition concentration (MIC)” value in the experiment on E. faecalis C6291 came to 8 µg/mL (≈ 19.1 µM); in the experiment with E. faecium C2252 it was 8 µg/mL (≈ 19.1 µM); with S. pyogenes ATCC8668, 2 µg/mL (≈ 4.78 µM); with S. epidermidis ATCC12228, 2 µg/mL (≈ 4.78 µM); in the experiment with S. pyogenes C6012, 2 µg/mL (≈ 4.78 µM); in the experiment on E. faecalis ATCC29212 it was 16 µg/mL (≈ 38.2 µM). Further, the entries for the “Minimum inhibition concentration (MIC)” value in the experiment on S. epidermidis C2230, with E. faecium C6301 and with E. faecalis C6288 were 16 µg/mL (≈ 38.2 µM), 8 µg/mL (≈ 19.1 µM) and 8 µg/mL (≈ 19.1 µM), respectively.

Consider `CC(=O)NC[C@H]1CN(c2ccc(N3CCC(=CC(C)O)CC3)c(F)c2)C(=O)O1` (stereo partly drawn) [Compound 22, N-[[(5S)-3-[3-fluoro-4-(4-(2-hydroxypropylidene)-piperidinyl)-phenyl]-2-oxo-5-oxazolidinyl]methyl]acetamide], for which the “Minimum inhibition concentration (MIC)” value in the experiment with MRSA C6068 amounted to 4 µg/mL (≈ 10.2 µM); in the experiment with MSSA C2214, 16 µg/mL (≈ 40.9 µM); in the experiment with MSSA C7142, 16 µg/mL (≈ 40.9 µM); with MRSA C5100, 8 µg/mL (≈ 20.4 µM); in the experiment with MRSA C2207, 16 µg/mL (≈ 40.9 µM); in the experiment with CRSA C6043 it was 8 µg/mL (≈ 20.4 µM). Besides, the “Minimum inhibition concentration (MIC)” value amounted to 16 µg/mL (≈ 40.9 µM) with CRSA C1062; 4 µg/mL (≈ 10.2 µM) with VRE C6488; 4 µg/mL (≈ 10.2 µM) with VRE C6487; 8 µg/mL (≈ 20.4 µM) in the experiment with S. pyogenes C6003; 8 µg/mL (≈ 20.4 µM) in the experiment with S. aureus ATCC 29213; 4 µg/mL (≈ 10.2 µM) with S. epidermidis C2235. In addition, the “Minimum inhibition concentration (MIC)” value in the experiment on E. faecalis C6291 was determined as 8 µg/mL (≈ 20.4 µM); in the experiment on E. faecium C2252 it was 4 µg/mL (≈ 10.2 µM); in the experiment with S. pyogenes ATCC8668, 2 µg/mL (≈ 5.11 µM); in the experiment on S. epidermidis ATCC12228 it was 2 µg/mL (≈ 5.11 µM); with S. pyogenes C6012, 2 µg/mL (≈ 5.11 µM); in the experiment with E. faecalis ATCC29212, 8 µg/mL (≈ 20.4 µM). Besides, the “Minimum inhibition concentration (MIC)” value in the experiment on S. epidermidis C2230, in the experiment on E. faecium C6301 and in the experiment on E. faecalis C6288 was 4 µg/mL (≈ 10.2 µM) throughout.

For the compound `CC(=O)NC[C@H]1CN(c2ccc(N3CCC(=CC(C)OC(C)=O)CC3)c(F)c2)C(=O)O1` (stereo partly drawn) [Compound 23, N-[[(5S)-3-[3-fluoro-4-(4-(2-acetoxypropylidene)-piperidinyl)phenyl]-2-oxo-5-oxazolidinyl]methyl]acetamide], the “Minimum inhibition concentration (MIC)” value with MRSA C6068 amounted to 8 µg/mL (≈ 18.5 µM); in the experiment with MSSA C2214, 16 µg/mL (≈ 36.9 µM); with MSSA C7142, 16 µg/mL (≈ 36.9 µM); in the experiment on MRSA C5100, 16 µg/mL (≈ 36.9 µM); in the experiment with MRSA C2207 it was 8 µg/mL (≈ 18.5 µM); in the experiment on CRSA C6043 it was 16 µg/mL (≈ 36.9 µM). For the same compound, the “Minimum inhibition concentration (MIC)” value came to 16 µg/mL (≈ 36.9 µM) in the experiment with CRSA C1062; 4 µg/mL (≈ 9.23 µM) with VRE C6488; 4 µg/mL (≈ 9.23 µM) with VRE C6487; 8 µg/mL (≈ 18.5 µM) in the experiment on S. pyogenes C6003; 16 µg/mL (≈ 36.9 µM) in the experiment with S. aureus ATCC 29213; 8 µg/mL (≈ 18.5 µM) in the experiment on S. epidermidis C2235. The “Minimum inhibition concentration (MIC)” value was 8 µg/mL (≈ 18.5 µM) in the experiment with E. faecalis C6291; 8 µg/mL (≈ 18.5 µM) in the experiment on E. faecium C2252; 0.5 µg/mL (≈ 1.15 µM) with S. pyogenes ATCC8668; 2 µg/mL (≈ 4.61 µM) in the experiment with S. epidermidis ATCC12228; 2 µg/mL (≈ 4.61 µM) in the experiment with S. pyogenes C6012; 8 µg/mL (≈ 18.5 µM) in the experiment with E. faecalis ATCC29212. Also, the “Minimum inhibition concentration (MIC)” value in the experiment on S. epidermidis C2230, with E. faecium C6301 and with E. faecalis C6288 was 8 µg/mL (≈ 18.5 µM) each time.
